Paper PMC11356900, “Synthesis, Structural Properties and Biological Activities of Novel Hydrazones of 2-, 3-, 4-Iodobenzoic Acid” (Molecules, 2024)
≈ marks a conversion by molar mass, not a printed value.

Experiments:
[1] = system: Candida albicans ATCC 10231; assay: Broth microdilution MIC/MFC; assay type: cell-based; conditions: for MFC: ATCC10231, read-out: MFC; for MIC: ATCC10231, read-out: MIC
Summary of the method: (§1)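 Following EUCAST and CLSI guidance, growth inhibition is measured in broth across final compound levels of 1000 down to 0.488 µg/mL. Cidal endpoints come from spotting each well onto agar; three independent repeats.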

[2] = system: Candida albicans ATCC 2091; assay: Broth microdilution MIC/MFC; assay type: cell-based; conditions: for MFC: ATCC2091, read-out: MFC; for MIC: ATCC2091, read-out: MIC
Summary of the method: as §1

[3] = system: Candida glabrata ATCC 90030; assay: Broth microdilution MIC/MFC; assay type: cell-based; conditions: Nakaseomyces glabratus; for MFC: ATCC90030, read-out: MFC; for MIC: ATCC90030, read-out: MIC
Summary of the method: as §1

[4] = system: Candida krusei ATCC 14243; assay: Broth microdilution MIC/MFC; assay type: cell-based; conditions: Pichia kudriavzevii; for MFC: ATCC14243, read-out: MFC; for MIC: ATCC14243, read-out: MIC
Summary of the method: as §1

[5] = system: Candida parapsilosis ATCC 22019; assay: Broth microdilution MIC/MFC; assay type: cell-based; conditions: Lodderomyces parapsilosis; for MFC: ATCC22019, read-out: MFC; for MIC: ATCC22019, read-out: MIC
Summary of the method: as §1

Candida spp. = assay: Broth microdilution, summary over reference yeasts; assay type: cell-based; conditions: for MFC/MIC / MIC / MFC: range over the reference Candida spp. strains; for antifungal activity in words: reference yeasts from Candida spp.
Summary of the method: as §1

[6] = system: Micrococcus luteus ATCC 10240; assay: Broth microdilution MIC/MBC; conditions: Micrococcus luteus, ATCC10240
[7] = system: Bacillus subtilis ATCC 6633; assay: Broth microdilution MIC/MBC; conditions: ATCC6633
[8] = system: Bacillus cereus ATCC 10876; assay: Broth microdilution MIC/MBC; conditions: Bacillus cereus, ATCC10876
[9] = system: Bordetella bronchiseptica ATCC 4617; assay: Broth microdilution MIC/MBC; conditions: ATCC4617
[10] = system: Klebsiella pneumoniae ATCC 13883; assay: Broth microdilution MIC/MBC; conditions: ATCC13883
[11] = system: Proteus mirabilis ATCC 12453; assay: Broth microdilution MIC/MBC; conditions: ATCC12453
[12] = system: Escherichia coli ATCC 25922; assay: Broth microdilution MIC/MBC; conditions: ATCC25922
[13] = system: Salmonella typhimurium ATCC 14028; assay: Broth microdilution MIC/MBC; conditions: for MBC / MIC: Salmonella enterica; for MBC/MIC: Salmonella typhimurium ATCC 14028
[14] = system: Pseudomonas aeruginosa ATCC 9027; assay: Broth microdilution MIC/MBC; conditions: ATCC9027

Row | Compound | MFC [1] [µg/mL] | MIC [1] [µg/mL] | MFC [2] [µg/mL] | MIC [2] [µg/mL] | MFC [3] [µg/mL] | MIC [3] [µg/mL] | MFC [4] [µg/mL] | MIC [4] [µg/mL] | MFC [5] [µg/mL] | MIC [5] [µg/mL] | MFC/MIC (Candida spp.) | MIC (Candida spp.) [µg/mL] | antifungal activity in words (Candida spp.) | melting point [°C] | MBC [6] [µg/mL] | MIC [6] [µg/mL] | MBC [7] [µg/mL] | MIC [7] [µg/mL] | MBC [8] [µg/mL] | MIC [8] [µg/mL] | further results
1 | O=C(N/N=C/c1cc(Cl)cc(I)c1O)c1cccc(I)c1 [Compound 20, N-[(5-chloro-2-hydroxy-3-iodophenyl)methylidene]-3-iodobenzohydrazide] | > 1000 | 250 (≈ 475 µM) | > 1000 | 500 (≈ 950 µM) | > 1000 | 125 (≈ 237 µM) | > 1000 | 500 (≈ 950 µM) | > 1000 | 125 (≈ 237 µM) | > 4 | 125 to 500 (≈ 237 to 950 µM) | good and moderate | 205 to 208 | 7.81 (≈ 14.8 µM) | 1.95 (≈ 3.7 µM) | 31.2 (≈ 59.4 µM) | 7.81 (≈ 14.8 µM) | 31.2 (≈ 59.4 µM) | 7.81 (≈ 14.8 µM) | MBC [9]: > 1000 µg/mL; MBC/MIC [9]: > 2; MIC [9]: 500 µg/mL (≈ 950 µM); MBC [10]: > 1000 µg/mL; MBC/MIC [10]: > 2; MIC [10]: 500 µg/mL (≈ 950 µM); MBC [11]: 1000 µg/mL (≈ 1900 µM); MBC/MIC [11]: 2; MIC [11]: 500 µg/mL (≈ 950 µM); MBC [12]: > 1000 µg/mL; MBC/MIC [12]: > 1; MIC [12]: 1000 µg/mL (≈ 1900 µM); MBC [13]: > 1000 µg/mL; MIC [13]: 1000 µg/mL (≈ 1900 µM); MBC/MIC [13]: > 1; MBC [14]: > 1000 µg/mL; MBC/MIC [14]: > 2; MIC [14]: 500 µg/mL (≈ 950 µM)
2 | O=C(N/N=C/c1cc(I)cc(I)c1O)c1ccccc1I [Compound 14, N-[(3,5-diiodo-2-hydroxyphenyl)methylidene]-2-iodobenzohydrazide] | 1000 (≈ 1620 µM) | 500 (≈ 809 µM) | > 1000 | 500 (≈ 809 µM) | 1000 (≈ 1620 µM) | 250 (≈ 405 µM) | > 1000 | 500 (≈ 809 µM) | > 1000 | 1000 (≈ 1620 µM) |  | 250 to 1000 (≈ 405 to 1620 µM) | moderate or mild | 241 to 245 | 125 (≈ 202 µM) | 62.5 (≈ 101 µM) | 500 (≈ 809 µM) | 500 (≈ 809 µM) | 250 (≈ 405 µM) | 125 (≈ 202 µM) | MFC (Candida spp.): ≥ 1000 µg/mL
3 | O=C(N/N=C/c1cc(Cl)cc(I)c1O)c1ccc(I)cc1 [Compound 27, N-[(5-chloro-2-hydroxy-3-iodophenyl)methylidene]-4-iodobenzohydrazide] | 31.2 (≈ 59.4 µM) | 15.6 (≈ 29.7 µM) | 62.5 (≈ 119 µM) | 62.5 (≈ 119 µM) | 62.5 (≈ 119 µM) | 31.2 (≈ 59.4 µM) | 62.5 (≈ 119 µM) | 62.5 (≈ 119 µM) | 62.5 (≈ 119 µM) | 31.2 (≈ 59.4 µM) | 1–2 | 31.2 to 62.5 (≈ 59.4 to 119 µM) | good (good bioactivity as a MIC in the range 26 – 125 µg/mL) | 200 to 201 | 250 (≈ 475 µM) | 125 (≈ 237 µM) | 500 (≈ 950 µM) | 125 (≈ 237 µM) | 250 (≈ 475 µM) | 62.5 (≈ 119 µM) | MFC (Candida spp.): 62.5 µg/mL (≈ 119 µM); MBC [9]: 1000 µg/mL (≈ 1900 µM); MBC/MIC [9]: 2; MIC [9]: 500 µg/mL (≈ 950 µM); MBC [10]: > 1000 µg/mL; MBC/MIC [10]: > 2; MIC [10]: 500 µg/mL (≈ 950 µM); MBC [11]: 1000 µg/mL (≈ 1900 µM); MBC/MIC [11]: 2; MIC [11]: 500 µg/mL (≈ 950 µM); MBC [12]: 500 µg/mL (≈ 950 µM); MBC/MIC [12]: 1; MIC [12]: 500 µg/mL (≈ 950 µM); MBC [13]: 1000 µg/mL (≈ 1900 µM); MIC [13]: 500 µg/mL (≈ 950 µM); MBC/MIC [13]: 2; MBC [14]: > 1000 µg/mL; MBC/MIC [14]: > 1; MIC [14]: 1000 µg/mL (≈ 1900 µM)
4 | O=C(N/N=C/c1cc(Br)cc(Br)c1O)c1cccc(I)c1 [Compound 21, N-[(3,5-dibromo-2-hydroxyphenyl)methylidene]-3-iodobenzohydrazide] | > 1000 | 250 (≈ 477 µM) | > 1000 | 500 (≈ 954 µM) | > 1000 | 125 (≈ 239 µM) | > 1000 | 500 (≈ 954 µM) | > 1000 | 250 (≈ 477 µM) | > 4 | 125 to 500 (≈ 239 to 954 µM) | good and moderate | 210 to 211 | 15.6 (≈ 29.8 µM) | 3.91 (≈ 7.46 µM) | 31.2 (≈ 59.6 µM) | 7.81 (≈ 14.9 µM) | 62.5 (≈ 119 µM) | 15.6 (≈ 29.8 µM) | MIC [9]: > 1000 µg/mL; MIC [10]: > 1000 µg/mL; MIC [11]: > 1000 µg/mL; MIC [12]: > 1000 µg/mL; MIC [13]: > 1000 µg/mL; MIC [14]: > 1000 µg/mL
